According to patent US20130317094A1, “USE OF ELLAGITANNINS AS INHIBITORS OF BACTERIAL QUORUM SENSING” (priority 2008, published 2013):

Experiments:
LasB elastase = assay: LasB elastolytic activity of culture supernatants (elastin Congo red); type: cell-based, Pseudomonas aeruginosa; conditions: for decrease in LasB activity compared to control: 40 ug/ml; for Elastase Activity: PAO1 grown with 40 μg/ml of sample
Method: LasB elastase is a zinc metalloprotease capable of affecting the host immune system and destroying biological tissue (Bever & Iglewski, 1988). The elastolytic activity of culture supernatants was determined using elastin Congo red (ECR; Sigma, St. Louis, Mo.) (Ohman et al., 1980). There was a significant decrease in LasB activity compared to that of the control when PAO1 was grown in the presence of C. erectus at 1 mg/ml (70% decrease) or 40 ug/ml (60% decrease) (Table 1). Purified vescalagin and castalagin also affected significant reductions in LasB activity, with decreases of 67% and 63%, respectively (Table 1).

[1] = tested on: P. aeruginosa PAO1-derived biomonitor strains pPCS 1001 and pPCS 1002; assay: Anti-QS agar well bioassay with lacZ biomonitor strains; type: cell-based, Pseudomonas aeruginosa; conditions: 10 μl aliquot per well
Method: These strains harbor lacZ fusions to the QS gene promoter regions enabling blue/white selection for QS activity. […] Briefly, LB agar plates were seeded with a lawn of one of the biomonitor strains and allowed to dry for 1 hour. Small wells were then cut and aspirated from the agar, and 10 μl aliquots of each fraction were pipetted into each well. Wells were checked at 18 h and 24 h for zones of QS inhibition.
Each fraction was pipetted into a small well in an agar plate seeded with one of these biomonitor strains and the appropriate reagents for visualization of lacZ activity.

C4-AHL (BHL) = assay: AHL production, C4-AHL; type: cell-based, Pseudomonas aeruginosa; conditions: for AHL production C4-AHL: 40 μg/ml of sample
Text: (§1) P. aeruginosa manufactures two main QS signaling molecules N-(3-oxododecanoyl)-L-homoserine lactone (OdDHL) and N-butanoyl-L-homoserine lactone (BHL) called autoinducers (Pearson et al., Proc. Natl. Acad. Sci. USA, 92:1490-1494, 1994). These molecules diffuse into the environment, and when they reach a putative threshold concentration, they activate the QS receptor genes.

lasR = conditions: 40 μg/ml of sample
Method: (§2) Samples were tested at the following concentrations: 1 mg/ml crude extract of C. erectus, 40 μg/ml crude extract, 40 μg/ml vescalagin, or 40 μg/ml castalagin. These additions were compared to a media-only control for the reduction of QS.

rhlI = conditions: 40 μg/ml of sample
Method: as §2

rhlR = conditions: 40 μg/ml of sample
Method: as §2

lasI = assay: QS gene expression, promoter-lacZ fusion β-galactosidase assay, lasI; type: cell-based, Pseudomonas aeruginosa; conditions: 40 μg/ml of sample
Method: as §2

pyoverdin = assay: Pyoverdin production (supernatant fluorescence); type: cell-based, Pseudomonas aeruginosa; conditions: PAO1 grown with 40 μg/ml of sample
Text: Pyoverdins function as siderophores essentially starving host tissues by competing with mammalian transferrin for iron. They also promote pathogenicity by stimulating bacterial growth (Cox & Adams, 1985), while auto-regulating themselves and the production of other toxins. Relative concentration of pyoverdin was based on fluorescence of the supernatant at an excitation wavelength of 405 nm and an emission wavelength of 465 nm (Gemini EM microplate reader). […] This is consistent with our previous data on C. erectus (Adonizio et al., 2008b).

C12-AHL (OdDHL) = assay: AHL production, C12-AHL; type: cell-based, Pseudomonas aeruginosa; conditions: 40 μg/ml of sample
Text: as §1

[2] = tested on: QS genes (lasI, lasR, rhlI, rhlR); assay: QS gene expression, summary over all tested QS genes; type: cell-based, Pseudomonas aeruginosa; conditions: 40 μg/ml
Method: as §2

LasA protease = assay: LasA staphylolytic assay of culture supernatants; type: cell-based, Pseudomonas aeruginosa; conditions: for LasA Activity: PAO1 grown with 40 μg/ml of sample; for decrease in LasA activity compared to control: crude extract printed 40 pg/ml, purified compounds 40 μg/ml
Method: LasA belongs to the p-lytic endopeptidase class of proteases (Kessler, 1995) and plays a major role in host tissue degradation (Kharazmi, 1989; Morihara & Homma, 1985). LasA protease activity was determined by measuring the ability of culture supernatants to lyse boiled S. aureus cells (Kong et al., Int. J. Med. Microbiol., 296:133-139, 2006). There was a significant decrease in LasA activity compared to that of the control when strain PAO1 was grown in the presence of C. erectus crude extract at 1 mg/ml (91% decrease), and a lesser effect at […] (26% decrease) (Table 1). Purified vescalagin and castalagin affected significant reductions in LasA activity as well, with decreases of 73% and 80%, respectively (Table 1).

P. putida = conditions: concentrations up to 30 μg/ml; cited from earlier work
LasB = conditions: P. putida grown in the presence of 30 μg/ml; cited from earlier work

Structure (SMILES)	decrease in LasB activity compared to control (LasB elastase)	Elastase Activity (LasB elastase)	anti-QS activity of HPLC fractions of Fraction A [1]	AHL production C4-AHL (C4-AHL (BHL))	Gene Expression (measured via β-galactosidase activity of the lacZ fusion products) lasR (lasR)	Gene Expression (measured via β-galactosidase activity of the lacZ fusion products) rhll (rhlI)	Gene Expression (measured via β-galactosidase activity of the lacZ fusion products) rhlR (rhlR)	Gene Expression (measured via β-galactosidase activity of the lacZ fusion products) las1 (lasI)	Pyoverdin production (pyoverdin)	AHL production C12-AHL (C12-AHL (OdDHL))	effect on expression of QS genes [2]	LasA Activity (LasA protease)	decrease in LasA activity compared to control (LasA protease)	reduction of BHL levels (C4-AHL (BHL); purified compound, 40 μg/ml)	effect on growth (P. putida)	decrease in LasB activity (LasB)
O=C1OC[C@H]2OC(=O)c3cc(O)c(O)c(O)c3-c3c(O)c(O)c(O)c4c3C(=O)O[C@H]([C@H]3OC(=O)c5c-4c(O)c(O)c(O)c5[C@H]3O)[C@@H]2OC(=O)c2cc(O)c(O)c(O)c2-c2c1cc(O)c(O)c2O [Castalagin, castalagin]	63%	52.7 ± 9.0 absorbance at OD495 per μg of protein × 1000	activity	0.703 ± 0.01 µM	2160 ± 509 Milller Units	4542 ± 199 Milller Units	4904 ± 348 Milller Units	2465 ± 116 Milller Units	4207 ± 150 fluorescence (405/465 nm) per μg of protein	1.389 ± 0.20 µM	reduced all QS gene levels save for rhlI	0.048 ± 0.003 reduction in OD600/hour per μg total protein	80%			
O=C1OCC2OC(=O)c3cc(O)c(O)c(O)c3-c3c(O)c(O)c(O)c4c3C(=O)OC(C2OC(=O)c2cc(O)c(O)c(O)c2-c2c1cc(O)c(O)c2O)C1OC(=O)c2c-4c(O)c(O)c(O)c2C1O (centres unmarked) [Vescalagin, vescalagin]	67%	47.2 ± 6.8 absorbance at OD495 per μg of protein × 1000	activity	0.489 ± 0.01 µM	1703 ± 297 Milller Units	3514 ± 306 Milller Units	4129 ± 287 Milller Units	2049 ± 93 Milller Units	4226 ± 138 fluorescence (405/465 nm) per μg of protein	1.227 ± 0.16 µM	reduced all QS gene levels including rhlI to a greater extent than castalagin	0.066 ± 0.008 reduction in OD600/hour per μg total protein	73%	21%		
O=c1oc2c(O)c(O)cc3c(=O)oc4c(O)c(O)cc1c4c23 [ellagic acid]															no effect	40%
